Test results taken from publication PMC6412695, “Hydroxamic Acid-Based Histone Deacetylase (HDAC) Inhibitors Bearing a Pyrazole Scaffold and a Cinnamoyl Linker” (International Journal of Molecular Sciences, 2019).
“Also recorded” adds a separate entry of the source.

Columns and labels:
[1] = tested on: HDAC (HeLa nuclear extract); assay: HDAC Inhibitor Drug Screening Kit (fluorometric, Biovision K340-100); assay type: biochemical; settings: for Inhibition at 500 μM (%) / Inhibition at 10 μM (%): mean of 3 independent measurements, SD <10%; for IC50: HDAC inhibitory activity
Experimental: The N^1-phenylpyrazole derivatives 1a (the isomer with the connection unit at C5) and 1b (the isomer with the connection unit at C3) were evaluated for their ability to inhibit the HDAC activity to have a preliminary insight about the SAR of this set of compounds. […] Therefore, the development of the other two derivatives of this class, i.e., the p-CN-phenyl derivative 2 and the p-Br-phenyl derivative 3, was focused on the single isomer C5-substituted. As for 1a, the detected inhibitory activity of 2 and 3 was in the low micromolar range (6.3 µM and 1.6 µM, respectively; Table 1).

[2] = tested on: neuroblastoma SH-SY5Y tumor cell line; assay: MTT antiproliferative assay; assay type: cell-based, Human; settings: SH-SY5Y cells; for inhibition at 25 µM / IC50: Homo sapiens; for inhibition at 25 µM: after 72 h, read-out: inhibition of cell proliferation; for inhibition at 25 µM / antiproliferative effect (in words): MTT; for IC50: MTT test; for antiproliferative effect (in words): 1–50 µM, 24, 48 and 72 h
Experimental: Human neuroblastoma cell line SH-SY5Y was originally obtained from ATCC (Rockville, MD, USA). Cells were cultured as previously reported. Briefly, we employed RPMI 1640 medium with 10% heat-inactivated fetal bovine serum (FBS), 2 mM L-glutamine, 1 mM sodium pyruvate, 100 IU/mL penicillin and 100 μg/mL streptomycin at 37 °C in a humidified atmosphere with 5% CO2. All the reagents for cell culture were from Carlo Erba (Milan, Italy). For biological investigations, compounds 1a, 2 and 3 were solubilized in dimethyl sulfoxide (DMSO) to obtain stock solutions at a final concentration of 50 mM that were stored at −20 °C. Just prior use, aliquots were diluted in medium to the final concentrations ranging from 1 to 50 μM.
The abovementioned compounds were evaluated by the MTT assay to assess their anti-proliferative activity, as reported by Ferlazzo et al. Cells were seeded at a density of 5 × 10^3 cell/well in 96-well plates and incubated overnight at 37 °C. In treated cells, the medium was then replaced with a fresh one in which the compounds were diluted from 1 to 50 µM. Untreated cells together with ones exposed to DMSO 0.1% served as control and solvent control, respectively. After incubation for 24, 48, and 72 h, plates were firstly centrifuged, then the medium was removed, and a solution of 3-(4,5-dimethylthiazole-2-yl)-2,5-diphenyltetrazolium bromide (MTT; Sigma-Aldrich, Milan, Italy) at a concentration of 0.5 mg/mL in fresh medium (w/o phenol red) was added. Plates were incubated for further 4h. Afterward, MTT solution was removed, and the obtained formazan crystals were solubilized in 100 µL of a lysis buffer consisting of HCl/isopropanol 0.1 N and regularly shaken. Optical density was measured employing a microplate reader (iMark™, Bio-Rad Laboratories, Milan, Italy) at 595 nm. All experiments were carried out in eight replicates for three times. Results are expressed as the percentage of viable cells compared to untreated cells.

| IC50 [1] | IC50 [2] | SMILES | Inhibition at 500 μM (%) [1] | inhibition at 25 µM [2] | Inhibition at 10 μM (%) [1] | antiproliferative effect (in words) [2] | antiproliferative effect (in words) ([2]; listed as 2a) |
| --- | --- | --- | --- | --- | --- | --- | --- |
| 7.1 ± 0.5 µM | 5.34 µM | Cc1cc(C(=O)Nc2ccc(/C=C/C(=O)NO)cc2)n(-c2ccccc2)n1 [Compound 1a, (E)-N-(4-(3-(hydroxyamino)-3-oxoprop-1-enyl)phenyl)-3-methyl-1-phenyl-1H-pyrazole-5-carboxamide] | 86% | > 75% |  |  |  |
| > 500 µM |  | Cc1cc(C(=O)Nc2ccc(/C=C/C(=O)NO)cc2)nn1-c1ccccc1 [Compound 1b, (E)-N-(4-(3-(hydroxyamino)-3-oxoprop-1-enyl)phenyl)-5-methyl-1-phenyl-1H-pyrazole-3-carboxamide] | 30% |  | 6% |  |  |
| 6.3 ± 0.3 µM |  | Cc1cc(C(=O)Nc2ccc(/C=C/C(=O)NO)cc2)n(-c2ccc(C#N)cc2)n1 [Compound 2, (E)-1-(4-cyanophenyl)-N-(4-(3-(hydroxyamino)-3-oxoprop-1-enyl)phenyl)-3-methyl-1H-pyrazole-5-carboxamide] | 88% |  | 51% | inactive | None of the tested concentrations; also recorded: No antiproliferative effect |
| 1.6 ± 0.2 µM | 5.61 µM | Cc1cc(C(=O)Nc2ccc(/C=C/C(=O)NO)cc2)n(-c2ccc(Br)cc2)n1 [Compound 3, (E)-1-(4-bromophenyl)-N-(4-(3-(hydroxyamino)-3-oxoprop-1-enyl)phenyl)-3-methyl-1H-pyrazole-5-carboxamide] | 88% | > 75% | 74% |  |  |
| 155 ± 2.8 µM |  | O=C(/C=C/c1ccc(NC(=O)c2cc(-c3ccccc3)[nH]n2)cc1)NO [Compound 4, (E)-N-(4-(3-(hydroxyamino)-3-oxoprop-1-enyl)phenyl)-5-phenyl-1H-pyrazole-3-carboxamide] | 71% |  | 13% |  |  |
| > 500 µM |  | O=C(/C=C/c1ccc(NC(=O)c2cc(-c3ccc(Br)cc3)[nH]n2)cc1)NO [Compound 5, (E)-5-(4-bromophenyl)-N-(4-(3-(hydroxyamino)-3-oxoprop-1-enyl)phenyl)-1H-pyrazole-3-carboxamide] | 15% |  |  |  |  |
| 46.5 ± 1.5 µM |  | O=C(/C=C/c1ccc(NC(=O)c2n[nH]c3c2Cc2ccccc2-3)cc1)NO [Compound 6, (E)-N-(4-(3-(hydroxyamino)-3-oxoprop-1-enyl)phenyl)-1,4-dihydroindeno[1,2-c]pyrazole-3-carboxamide] | 87% |  | 29% |  |  |

| SMILES | IC50 [1] | IC50 [2] | Inhibition at 500 μM (%) [1] | inhibition at 25 µM [2] | Inhibition at 10 μM (%) [1] | antiproliferative effect (in words) [2] | antiproliferative effect (in words) ([2]; listed as 2a) |
| --- | --- | --- | --- | --- | --- | --- | --- |
| CC(/C=C/C(=O)NO)=C\[C@@H](C)C(=O)c1ccc(N(C)C)cc1 [TSA, Trichostatin A, reference compound] | 3.4 ± 0.2 µM |  |  |  |  |  |  |
